Reference: PubChem BioAssay AID1963835 (Molecular Pharmacology Branch, DTP, NCI, 2024)
pIC50: −log10 of the molar value. Where “and” joins values, the source holds several entries; their conditions need not be identical. Equal values may be shown once.

Test system: 699152-130-R-J1-PDC complex spheroid viability
Experiment: Anticancer human tumor 699152-130-R-J1-PDC patient-derived pancreatic carcinoma cell line growth inhibition [POLQ]
Settings: for viability, T/C: stronger effect = lower value
Protocol: Multicellular complex tumor spheroid response to Polymerase (POL) inhibitors (novobiocin, ART-558, RP6685) in combination with a variety of drugs and investigational agents in selected tumor cell lines
The POL inhibitors (novobiocin, ART-558, and RP6685) were evaluated both individually and in combination with standard of care and investigational anticancer small molecules within a complex spheroid model of solid tumors. . Complex spheroids include a stromal component modeled by human endothelial cells (HUVEC) and fibroblasts modeled by human mesenchymal stem cells (MSCs). The concentration ranges selected for each drug and investigational agent were based upon clinically achievable concentrations if the clinical Cmax of the agent was known.
Compounds. The drugs and investigational agents: novobiocin (NSC847541), ART-558 (NSC835418), RP-6685 (NSC848927), peposertib (NSC802822), ceralasertib (NSC780249), elimusertib (NSC800525), camonsertib (NSC841442), AZD-1390 (NSC803789), olaparib (NSC753686), talazoparib (NSC767125), rucaparib (NSC756644), sotorasib (NSC818433), MRTX-1133 (NSC836407), SN-38 (NSC673596), topotecan (NSC609699), epotoside (NSC141540), doxorubicin (NSC123127), gemcitabine (NSC613327), 5-fluorouracil (NSC19893), paclitaxel (NSC125973), vemurafenib (NSC761431), MSA-2 (NSC828583), SN-011 (NSC837082), adavosertib (NSC754352), prexasertib (NSC758257), carboplatin (NSC241240) and oxaliplatin (NSC266046), were obtained from the National Cancer Institute (NCI) Developmental Therapeutics Program Chemical Repository (21). The FDA-approved anticancer drug set is available from the Developmental Therapeutics Program at https://dtp.cancer.gov/organization/dscb/obtaining/. […] The stock solutions were prepared in dimethyl sulfoxide (DMSO, Sigma-Aldrich, St. Louis, MO, cat. D2650), except for the platinum compounds which were prepared in saline (Quality Biological, Gaithersburg, MD, cat. 114-055-101), at 800-fold the tested concentration and stored at -70 degrees C prior to their use. All drugs and investigational agents were tested over a range starting from a high concentration at or near the clinical Cmax and decreasing in half-log increments. If the clinical Cmax for an agent had not been determined, the highest concentration tested was 10 microM, except for SN-38, which was tested at a high concentration of 1 microM.
Cell Culture. All cells were maintained in an incubator at 37 degrees C and 5% CO2 with 95% humidity. The PDC lines were cultured according to standard operating procedures established by the NCI PDMR (https://pdmr.cancer.gov). Table 3 of the manuscript, lists the cell lines along with the number of the three cell types plated to form the mct-spheroids and media for tumor cell growth. After thawing, all PDC lines, except 997537-175-T-J1-PDC and 415267-285-R-J2-PDC, were cultured in Matrigel-coated flasks prepared with a working solution of 1X Ham's F-12 nutrient mix, without supplementation (Thermo Fisher Scientific, cat. 11765054), 100 U/mL penicillin-streptomycin (Thermo Fisher Scientific, cat. 15140122), and 2.5% Matrigel (Corning Inc., Corning, NY, cat. 354248) for the first three passages. The two PDC lines 997537-175-T-J1-PDC and 415267-285-R-J2-PDC were cultured on uncoated flasks. The 857933-349-R-J2-PDC line was cultured in 6C/Colon 1B media containing advanced DMEM/F-12 (Thermo Fisher Scientific, cat. 12634028), 10 mM HEPES (Thermo Fisher Scientific, cat. 15630080), 1X GlutaMAX supplement (Thermo Fisher Scientific, cat. 35050061), 0.1 mg/mL primocin (InvivoGen, San Diego, CA, cat. ant-pm-2), 10% defined fetal bovine serum, heat inactivated (HyClone Laboratories Inc., Logan, UT, cat. SH30070.03HI), 50% L-WRN conditioned media (ATCC, cat. CRL-3276), 1.25 mM N-Acetyl-L-cysteine (Sigma-Aldrich, cat. A9165), 10 mM nicotinamide (Sigma-Aldrich, cat. N0636), 1X B-27 supplement (Thermo Fisher Scientific, cat. 17504044), 1X N-2 supplement (Thermo Fisher Scientific, cat. […]

[1] = compound alone, run of 12/05/2023
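Further: spheroids exposed to agents for 7 days before viability reading.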
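Wherever viability, T/C is given: percent of DMSO vehicle control viability so 100% = vehicle and 0% = no viable signal.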

| SMILES | viability, T/C (compound 0.0316 µM) | viability, T/C (compound 0.1 µM) | viability, T/C (compound 0.316 µM) | viability, T/C (compound 1 µM) | viability, T/C (compound 3.16 µM) | viability, T/C (compound 10 µM) | pIC50 (curve of compound) | viability, T/C (compound 0.00316 µM) | viability, T/C (compound 0.01 µM) | pIC50 (compound alone, run of 11/27/2023) | pIC50 [1] | viability, T/C (compound 0.000316 µM) | viability, T/C (compound 0.001 µM) |
| --- | --- | --- | --- | --- | --- | --- | --- | --- | --- | --- | --- | --- | --- |
| CNCc1ccc(-c2[nH]c3cc(F)cc4c3c2CCNC4=O)cc1 | 96.2% and 95.6% and 99% | 99.8% and 91.1% and 101% | 118% and 90.3% and 99.8% | 106% and 108% and 112% | 119% and 117% and 138% | 111% and 109% and 130% | < 5.00 | – | – | – | – | – | – |
| COc1cc(C2c3cc4c(cc3C(OC3OC5COC(C)OC5C(O)C3O)C3COC(=O)C23)OCO4)cc(OC)c1O (stereo unspecified) | 105% and 94.4% and 87.1% | 90.3% and 87% and 86.1% | 76.8% and 81.6% and 71.8% | 73.7% and 79.2% and 62.8% | 59.8% and 63.5% and 52.7% | 53.1% and 44% and 40.2% | < 5.00 and 5.14 and 5.43 | – | – | – | – | – | – |
| COc1cc2cc(C(=O)CCC(=O)O)sc2cc1OC | 101% (2×) and 90.4% | 98.7% and 97.3% and 103% | 94.8% and 103% and 101% | 102% and 96.4% and 105% | 111% (2×) and 91.5% | 99.7% and 93.3% and 99.9% | < 5.00 | – | – | – | – | – | – |
| COc1ccc([C@@H](O)c2cc(-c3ncnc4cc(N5CCOCC5)ccc34)c(F)cc2Cl)nn1 | 111% and 87.9% and 88.4% | 96.7% and 92.9% and 106% | 94.5% and 88.7% and 79.7% | 84.6% and 77.3% and 75% | 49.6% and 50.5% and 60.4% | 23.9% and 19.9% and 19.4% | 5.47 and 5.50 and 5.40 | – | – | – | – | – | – |
| COc1cccc(OCCCN)c1-c1cc(Nc2cnc(C#N)cn2)n[nH]1 | 66% and 60% and 74.3% | 56.1% and 57.8% and 62.7% | 55.3% and 56.8% and 60.6% | 50.4% and 52.5% and 58.4% | – | – | < 6.00 | 94% and 98.1% and 84.3% | 84.5% and 83.7% and 91.9% | – | – | – | – |
| COc1cccc2c1C(=O)c1c(O)c3c(c(O)c1C2=O)CC(O)(C(=O)CO)CC3OC1CC(N)C(O)C(C)O1 (stereo unspecified) | 72.5% and 86.9% and 85.1% | 60.1% and 60.5% and 89.2% | 48.5% and 51.9% and 44.8% | 31.2% and 30.2% and 27.1% | 2.58% and 1.68% and 2.6% | 11.1% and 13.1% and 12.4% | 6.54 and 6.59 and 6.49 | – | – | – | – | – | – |
| Cc1cccc(N(C)C(=O)C2C(O)CCN2c2nc(C)cc(C(F)(F)F)c2C#N)c1 (stereo unspecified) | 105% [middle of 13 runs] | 102% [middle of 13 runs] | 101% [middle of 13 runs] | 104% [middle of 13 runs] | – | 102% [middle of 13 runs] | – | – | – | < 5.00 | < 5.00 | – | – |
| Cn1ncnc1[C@H]1c2n[nH]c(=O)c3cc(F)cc(c23)N[C@@H]1c1ccc(F)cc1 | 83.2% and 89.8% and 97.3% | 86.5% and 95.5% and 92.5% | – | – | – | – | < 7.00 | 95% and 104% and 108% | 80.8% and 104% and 106% | – | – | 94.3% and 91% and 102% | 88.8% and 78.8% and 93% |
| Nc1ccc(C#CCN(C(=O)Cc2ncc(C(F)(F)F)cc2C(F)(F)F)c2ccc(F)cc2)nn1 | 96.2% [middle of 13 runs] | 99.3% [middle of 13 runs] | 101% [middle of 13 runs] | 101% [middle of 13 runs] | 103% [middle of 13 runs] | 113% [middle of 13 runs] | – | – | – | – | < 5.00 | – | – |
| Nc1ccn(C2OC(CO)C(O)C2(F)F)c(=O)n1 (stereo unspecified) | 68.9% and 75.2% and 66% | 63.8% and 57.4% and 54.5% | 54.8% and 51.7% and 52.1% | 49.3% and 52.1% and 41.2% | 44.3% and 51.1% and 40.1% | 39.6% and 44.7% and 36% | 6.04 and 6.10 and 6.56 | – | – | – | – | – | – |
| O=C(Nc1ccc(O)c(NS(=O)(=O)c2ccc(F)cc2)c1)c1ccc(-c2ccccc2)cc1 | 114% and 90.3% and 92.6% | 104% and 94.2% and 112% | 101% and 103% (2×) | 102% and 109% and 107% | 106% and 108% and 112% | 71.6% and 70% and 81.6% | < 5.00 | – | – | – | – | – | – |
| O=C(c1cc(Cc2n[nH]c(=O)c3ccccc23)ccc1F)N1CCN(C(=O)C2CC2)CC1 | 101% and 104% and 103% | 99.6% and 92.1% and 91.6% | 100% and 98% and 95.9% | 93.5% and 90.7% and 103% | 91.4% and 87.8% and 91.5% | 71.4% and 59.8% and 88.3% | < 5.00 | – | – | – | – | – | – |
| O=c1[nH]cc(F)c(=O)[nH]1 | 91.8% and 111% and 102% | 130% and 91.7% and 100% | 96.3% and 108% and 117% | 101% and 114% and 94% | 108% and 92.4% and 91% | 70.4% and 70.2% and 62.4% | < 5.00 | – | – | – | – | – | – |
